Literature values as cited in patent publication US20260306413A1, “COLONIC PURGATIVE TABLET AND COLONIC PURGATIVE COMPRISING SAME” (PHARMBIO KOREA CO., LTD., priority 2023, published 2026).

## Phosphate
Compared to PEG
  colon cleansing effect: colon cleansing effect in smaller doses compared to PEG
Frequency vs PEG
  side effects: side effects such as abdominal inflation, pain, and dizziness at a similar frequency to PEG

## O=P(O)(O)O [oral sodium phosphate, sodium phosphate]
oral
  complications: acute phosphate nephropathy
